Test results from patent US20160083400A1, “TRICYCLIC GUANIDINE DERIVATIVE” (Sunovion Pharmaceuticals Inc., priority 2014, published 2016).

molecular target: PDE1B (Homo sapiens, UniProt Q01064); test: In vitro HTRF PDE1 inhibition assay (PDE1B); type: biochemical; conditions: 100 nM cyclic GMP, calmodulin, 45 minutes at 37° C.
Sequence (Q01064 whole entry): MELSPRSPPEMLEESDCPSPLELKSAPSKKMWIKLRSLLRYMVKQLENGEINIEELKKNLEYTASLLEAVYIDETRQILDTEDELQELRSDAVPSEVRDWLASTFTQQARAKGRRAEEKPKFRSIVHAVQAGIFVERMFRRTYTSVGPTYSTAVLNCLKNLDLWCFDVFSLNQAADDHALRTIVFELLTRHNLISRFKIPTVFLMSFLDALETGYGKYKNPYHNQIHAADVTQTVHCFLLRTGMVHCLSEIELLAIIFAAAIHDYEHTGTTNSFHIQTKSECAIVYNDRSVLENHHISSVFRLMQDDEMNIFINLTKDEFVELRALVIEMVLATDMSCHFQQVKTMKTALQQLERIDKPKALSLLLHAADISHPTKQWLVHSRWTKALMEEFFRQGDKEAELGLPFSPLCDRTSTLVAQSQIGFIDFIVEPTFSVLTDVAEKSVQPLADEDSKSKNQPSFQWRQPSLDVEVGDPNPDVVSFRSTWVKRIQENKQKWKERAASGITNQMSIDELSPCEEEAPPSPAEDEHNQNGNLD

Structure (SMILES)	IC50
O=c1c2cnn(C3CCOCC3)c2nc2n1CCC(Cc1ccc(Cl)cc1)N2 (stereo not drawn) [Example 17]	< 1 µM
CC(C)(C)n1ncc2c(=O)n3c(nc21)NC(c1ccc(Cl)cc1)CC3 (stereo not drawn) [Example 45]	10 to 100 µM
O=c1c2noc(C3CCOCC3)c2nc2n1CCC(c1cccc(Cl)c1)N2 (stereo not drawn) [Example 159]	10 to 100 µM
CC(C)n1ncc2c(=O)n3c(nc21)NC(c1ccccc1)CC3 (stereo not drawn) [Example 32]	< 1 µM
O=c1c2cnn(C3CCCC3)c2nc2n1CCC(c1ccncc1)N2 (stereo not drawn) [Example 3]	1 to 10 µM
CC(C)c1ncc2c(=O)n3c(nn12)NC(C1CCCCC1)CC3 (stereo not drawn) [Example 53]	< 1 µM
O=c1c2cnc(C3CCOCC3)n2nc2n1CC(c1ccc(Cl)nc1)N2 (stereo not drawn) [Example 183]	< 1 µM
CC(C)(C)c1ncc2c(=O)n3c(nn12)NC(c1ccc(Cl)cc1)CC3 (stereo not drawn) [Example 68]	< 1 µM
CCCn1ncc2c(=O)n3c(nc21)NC(c1ccc(Cl)cc1)CC3 (stereo not drawn) [Example 35]	< 1 µM
O=c1c2cnc(C3CCOCC3)n2nc2n1CCC(c1cccc(Cl)c1)N2 (stereo not drawn) [Example 56]	< 1 µM
CC(C)n1ncc2c(=O)n3c(nc21)NC(c1ccc(C#N)cc1)CC3 (stereo not drawn) [compound 88]	< 1 µM
CC(C)c1ncc2c(=O)n3c(nn12)N[C@@H](c1ccc(O)cc1)C3 [Example 261, (2S)-2-(4-Hydroxyphenyl)-8-isopropyl-2,10-dihydro-3H,5H-diimidazo[2,1-c:5′,1′-f][1,2,4]triazin-5-one]	< 1 µM
COc1ccc(CC2CCn3c(nc4c(cnn4C4CCOCC4)c3=O)N2)cc1 (stereo not drawn) [Example 16]	< 1 µM
O=c1c2cnc(C3CCOCC3)n2nc2n1C[C@@H](c1ccc(Cl)cc1)N2 [Example 138]	< 1 µM
CC(C)c1ncc2c(=O)n3c(nn12)NC(c1ccc(C#N)cc1)CC3 (stereo not drawn) [Example 91]	< 1 µM
COc1cncc([C@@H]2CCn3c(nn4c(C5CCCC5)ncc4c3=O)N2)c1 [Example 131]	< 1 µM
CC(C)n1ncc2c(=O)n3c(nc21)N[C@H](c1ccc(Cl)cc1)CC3 [Example 28]	1 to 10 µM
O=c1c2cnn(C3CCOCC3)c2nc2n1C[C@@H](c1ccc(Cl)cc1)N2 [Example 147]	1 to 10 µM
CCCc1ncc2c(=O)n3c(nn12)N[C@@H](c1ccc(Cl)cc1)CC3 [Example 167]	< 1 µM
O=c1c2cnc(C3CCOCC3)n2nc2n1CC[C@H](c1cccc(Cl)c1)N2 [Example 127]	< 1 µM

Structure (SMILES)	IC50
COc1cccc(C2CCn3c(nn4c(C(C)C)ncc4c3=O)N2)c1 (stereo not drawn) [Example 47]	< 1 µM
O=c1c2cnc(C3CCNCC3)n2nc2n1CCC(c1ccc(Cl)cc1)N2 (stereo not drawn) [Example 253, 2-(4-Chlorophenyl)-9-(4-piperidinyl)-1,2,3,4-tetrahydro-6H-imidazo[5,1-f]pyrimido[2,1-c][1,2,4]triazin-6-one]	1 to 10 µM
Cc1ccc([C@@H]2CN3C(=O)c4cnc(C(C)C)n4NC3=N2)cc1 [Example 97, (2R)-8-Isopropyl-2-(4-methylphenyl)-2,10-dihydro-3H,5H-diimidazo[2,1-c:5′,1′-f][1,2,4]triazin-5-one]	< 1 µM
O=c1c2cnc(C3CCOCC3)n2nc2n1CC[C@H](c1ccc(Cl)cc1C(F)(F)F)N2 [Example 122]	< 1 µM
O=c1c2cnn(CC(F)(F)F)c2nc2n1CCC(c1ccc(Cl)cc1)N2 (stereo not drawn) [Example 38]	< 1 µM
COCc1ncc2c(=O)n3c(nn12)N[C@@H](c1ccc(Cl)cc1)CC3 [Example 244]	< 1 µM
O=c1c2cnc(C3CCOCC3)n2nc2n1CC(c1ccc(F)nc1)N2 (stereo not drawn) [Example 184]	1 to 10 µM
Cc1ccc(C2CCn3c(nc4c(cnn4C(C)C)c3=O)N2)cn1 (stereo not drawn) [Example 12]	1 to 10 µM
O=c1c2cnc(C3CCOCC3)n2nc2n1CC[C@H](c1ccc(Cl)cc1F)N2 [Example 125]	< 1 µM
O=c1c2cnc(CC3CC3)n2nc2n1CC[C@H](c1ccc(Cl)cc1)N2 [Example 247]	< 1 µM
CCC(CC)n1ncc2c(=O)n3c(nc21)NC(c1ccc(Cl)cc1)CC3 (stereo not drawn) [Example 36]	< 1 µM
O=c1c2cnn(C3CCOCC3)c2nc2n1CC(c1ccc(F)cc1)N2 (stereo not drawn) [Example 76]	< 1 µM
COc1ccc([C@@H]2Cn3c(nn4c(C5CCOCC5)ncc4c3=O)N2)cc1 [Example 140]	< 1 µM
Cc1cnc(CC2CCn3c(nc4c(cnn4C4CCCC4)c3=O)N2)nc1 (stereo not drawn) [Example 70, 1-Cyclopentyl-8-[(5-methyl-2-pyrimidinyl)methyl]-6,7,8,10-tetrahydropyrazolo[3,4-d]pyrimido[1,2-a]pyrimidin-4(1H)-one]	1 to 10 µM
CC(C)c1ncc2c(=O)n3c(nn12)N[C@H](c1ccc(Cl)cc1)CC3 [Example 49]	1 to 10 µM
CC(C)c1ncc2c(=O)n3c(nn12)NC(c1ccc(Cl)cn1)CC3 (stereo not drawn) [Example 51]	< 1 µM
COc1cc(C2CCn3c(nc4c(cnn4C(C)C)c3=O)N2)ccc1F (stereo not drawn) [Example 11]	< 1 µM
O=c1c2cnn(CC3CC3)c2nc2n1CCC(c1ccc(Cl)cc1)N2 (stereo not drawn) [Example 37]	< 1 µM
O=c1c2noc(C3CCOCC3)c2nc2n1CC[C@H](c1ccc(Cl)cc1)N2 [Example 155]	1 to 10 µM

Continued, values first:

IC50	Structure (SMILES)
1 to 10 µM	O=c1c2cnn(C3CCCC3)c2nc2n1CC[C@@H](c1ccc(Cl)cc1)N2 [Example 41]
< 1 µM	COc1ccc(C2CCn3c(nn4c(C(C)C)ncc4c3=O)N2)cc1 (stereo not drawn) [Example 54]
1 to 10 µM	CC(=O)c1ncc2c(=O)n3c(nn12)N[C@@H](c1ccc(Cl)cc1)CC3 [Example 252, (2R)-9-Acetyl-2-(4-chlorophenyl)-1,2,3,4-tetrahydro-6H-imidazo[5,1-f]pyrimido[2,1-c][1,2,4]triazin-6-one]
1 to 10 µM	O=c1c2cnn(C3CCC(F)(F)CC3)c2nc2n1CCC(c1ccc(Cl)cc1)N2 (stereo not drawn) [Example 39]
< 1 µM	Cc1cccc([C@@H]2CCn3c(nn4c(C5CCOCC5)ncc4c3=O)N2)c1 [Example 263, (2S)-2-(3-Methylphenyl)-9-(tetrahydro-2H-pyran-4-yl)-1,2,3,4-tetrahydro-6H-imidazo[5,1-f]pyrimido[2,1-c][1,2,4]triazin-6-one]
< 1 µM	O=c1c2cnn(C3CCOCC3)c2nc2n1CC(c1ccc(Cl)cc1)N2 (stereo not drawn) [Example 75]
< 1 µM	CC(C)n1ncc2c(=O)n3c(nc21)NC(c1cccc(Cl)c1)CC3 (stereo not drawn) [Example 30]
< 1 µM	CC(C)n1ncc2c(=O)n3c(nc21)NC(c1ccc(C#N)cc1)C3 (stereo not drawn) [compound 87]
1 to 10 µM	O=c1c2cnc(CO)n2nc2n1CC[C@H](c1ccc(Cl)cc1)N2 [Example 237]
< 1 µM	Cc1cccc([C@H]2CCn3c(nn4c(C5CCOCC5)ncc4c3=O)N2)c1 [Example 264, (2R)-2-(3-Methylphenyl)-9-(tetrahydro-2H-pyran-4-yl)-1,2,3,4-tetrahydro-6H-imidazo[5,1-f]pyrimido[2,1-c][1,2,4]triazin-6-one]
1 to 10 µM	C=Cc1ncc2c(=O)n3c(nn12)N[C@@H](c1ccc(Cl)cc1)CC3 [Example 248]
1 to 10 µM	O=c1c2cnc(C3CCOCC3)n2nc2n1CC[C@@H](c1ccc(Cl)cc1F)N2 [Example 124]
10 to 100 µM	O=c1c2noc(C3CCCC3)c2nc2n1CC[C@H](c1ccc(Cl)cc1)N2 [Example 153]
1 to 10 µM	Cc1ccc(CC2CCn3c(nc4c(cnn4C(C)C)c3=O)N2)cn1 (stereo not drawn) [Example 33]
1 to 10 µM	O=c1c2cnc(C(F)(F)F)n2nc2n1CC[C@H](c1ccc(Cl)cc1)N2 [Example 246]
< 1 µM	COc1ccc([C@@H]2CN3C(=O)c4cnc(C5(C(F)(F)F)CC5)n4NC3=N2)cc1 [Example 255, (2R)-2-(4-Methoxyphenyl)-8-[1-(trifluoromethyl)cyclopropyl]-2,10-dihydro-3H,5H-diimidazo[2,1-c:5′,1′-f][1,2,4]triazin-5-one]
< 1 µM	CC(C)n1ncc2c(=O)n3c(nc21)NC(c1ccccc1Cl)CC3 (stereo not drawn) [Example 31]
< 1 µM	Cc1cncc([C@H]2CCn3c(nn4c(C5CCCC5)ncc4c3=O)N2)c1 [Example 132]

IC50	Structure (SMILES)
< 1 µM	Cc1cncc([C@@H]2CCn3c(nn4c(C5CCCC5)ncc4c3=O)N2)c1 [Example 133]
1 to 10 µM	Cc1ncc(C2CCn3c(nc4c(cnn4C(C)C)c3=O)N2)cn1 (stereo not drawn) [Example 25]
< 1 µM	O=c1c2cnn(C3CCC3)c2nc2n1CCC(c1ccc(Cl)cc1)N2 (stereo not drawn) [Example 44]
10 to 100 µM	COc1cccc(C2CCn3c(nc4c(cnn4C4CCCC4)c3=O)N2)c1 (stereo not drawn) [Example 5]
< 1 µM	COc1ccc([C@H]2CCn3c(nn4c(C(C)C)ncc4c3=O)N2)cc1 [Example 85]
< 1 µM	CC(C)c1ncc2c(=O)n3c(nn12)NC(c1ccc(Cl)nc1)C3 (stereo not drawn) [Example 181, 2-(6-Chloro-3-pyridinyl)-8-isopropyl-2,10-dihydro-3H,5H-diimidazo[2,1-c:5′,1′-f][1,2,4]triazin-5-one]
< 1 µM	N#Cc1cccc(C2CCn3c(nn4c(C5CCOCC5)ncc4c3=O)N2)c1 (stereo not drawn) [Example 94]
1 to 10 µM	CC(C)c1onc2c(=O)n3c(nc12)NC(c1cccc(Cl)c1)CC3 (stereo not drawn) [Example 158]
< 1 µM	CCn1ncc2c(=O)n3c(nc21)NC(c1ccc(Cl)cc1)CC3 (stereo not drawn) [Example 34]
< 1 µM	O=c1c2cnn(C3CC3)c2nc2n1CCC(c1ccc(Cl)cc1)N2 (stereo not drawn) [Example 15]
< 1 µM	CC(C)n1ncc2c(=O)n3c(nc21)NCCC3 [Example 254, 1-Isopropyl-6,7,8,10-tetrahydropyrazolo[3,4-d]pyrimido[1,2-a]pyrimidin-4(1H)-one]
1 to 10 µM	Cc1cc(C2CCn3c(nc4c(cnn4C(C)C)c3=O)N2)ccn1 (stereo not drawn) [Example 26]
< 1 µM	O=c1c2cnc(C3CCCC3)n2nc2n1CCC(c1ccc(Cl)cc1)N2 (stereo not drawn) [Example 60]
< 1 µM	O=c1c2cnc(C3CCOCC3)n2nc2n1CC[C@@H](c1cccc(Cl)c1)N2 [Example 126]
< 1 µM	COc1cccc([C@@H]2CCn3c(nn4c(C5CCOCC5)ncc4c3=O)N2)c1 [Example 129]
< 1 µM	O=c1c2cnc(C3CC3)n2nc2n1CCC(c1ccc(Cl)cc1)N2 (stereo not drawn) [Example 67]
< 1 µM	CC(C)Cc1ncc2c(=O)n3c(nn12)N[C@@H](c1ccc(Cl)cc1)CC3 [Example 166]
< 1 µM	O=c1c2cnc(C3CCCC3)n2nc2n1CC[C@H](c1cncc(Cl)c1)N2 [Example 135]
